Holding throughout (assay): microbe, parasite or virus in culture
Common to all, as to type: cell-based
Settings in all cases: Mycobacterium tuberculosis

The test system of assay [1] is M. tb H37Rv SR (streptomycin resistant).
The test system of assay [2] is M. tb H37Rv IR (isoniazid resistant).
The test system of assay [3] is M. tb H37Rv RR (rifampicin resistant).
Assay [4] concerns M. tb H37Rv ER (ethambutol resistant).

The structures appear in SMILES notation. Values after ≈ are worked out from the molar mass of the structure shown. Bounds are passed on as bounds.

As for `CCOC(=O)c1ccc2c(c1)[n+]([O-])c(C(=O)c1cccs1)c(C(F)(F)F)[n+]2[O-]` [Compound T-011], the MIC in assay [1] was 0.625 µg/mL (≈ 1.52 µM); in assay [2], under 0.31 µg/mL; in assay [3] it was under 0.31 µg/mL; in assay [4], under 0.31 µg/mL.

For the compound `CC(C)OC(=O)c1ccc2c(c1)[n+]([O-])c(C(=O)c1cccs1)c(C(F)(F)F)[n+]2[O-]` [Compound T-069], the MIC in assay [1] is 1.25 µg/mL (≈ 2.93 µM); in assay [2], 0.62 µg/mL (≈ 1.45 µM); in assay [3] it was 1.25 µg/mL (≈ 2.93 µM); in assay [4] it was 1.25 µg/mL (≈ 2.93 µM).

`CCCOC(=O)c1ccc2c(c1)[n+]([O-])c(C(=O)c1cccs1)c(C(F)(F)F)[n+]2[O-]` [Compound T-089]: the MIC was 1.25 µg/mL (≈ 2.93 µM) in assay [1], under 0.31 µg/mL in assay [2], 1.25 µg/mL (≈ 2.93 µM) in assay [3] and 0.625 µg/mL (≈ 1.47 µM) in assay [4].

`CCOC(=O)c1ccc2c(c1)[n+]([O-])c(C(C)=O)c(C(F)(F)F)[n+]2[O-]` [Compound T-006]: the MIC in assay [1] was 5 µg/mL (≈ 14.5 µM); in assay [2] it was 1.25 µg/mL (≈ 3.63 µM); in assay [3], 1.25 µg/mL (≈ 3.63 µM); in assay [4], 1.25 µg/mL (≈ 3.63 µM).

For `CC(C)OC(=O)c1ccc2c(c1)[n+]([O-])c(C(=O)C(C)C)c(C(F)(F)F)[n+]2[O-]` [Compound T-085], the MIC in assay [1] is 1.25 µg/mL (≈ 3.24 µM); in assay [2] it was under 0.31 µg/mL; in assay [3] it was 0.625 µg/mL (≈ 1.62 µM); in assay [4], under 0.31 µg/mL.

Take `CCCOC(=O)c1ccc2c(c1)[n+]([O-])c(C(=O)OC)c(C)[n+]2[O-]` [Compound T-088]: the MIC in assay [1] is 0.625 µg/mL (≈ 1.95 µM); in assay [2] it was 0.62 µg/mL (≈ 1.94 µM); in assay [3] it was under 0.31 µg/mL; in assay [4] it was under 0.31 µg/mL.

Regarding `CO[C@H]1/C=C/O[C@@]2(C)Oc3c(C)c(O)c4c(O)c(c(/C=N/N5CCN(C)CC5)c(O)c4c3C2=O)NC(=O)/C(C)=C\C=C\[C@H](C)[C@H](O)[C@@H](C)[C@@H](O)[C@@H](C)[C@H](OC(C)=O)[C@@H]1C` [RMP, rifampicin, reference compound], the MIC in assay [1] is under 0.06 µg/mL; in assay [2] it was under 0.06 µg/mL; in assay [3], over 2 µg/mL; in assay [4], under 0.06 µg/mL.

Consider `COC(=O)c1ccc2c(c1)[n+]([O-])c(C(=O)c1ccccc1)c(C(F)(F)F)[n+]2[O-]` [Compound T-018], for which the MIC in assay [1] was determined as 1.25 µg/mL (≈ 3.19 µM); in assay [2] it was 0.62 µg/mL (≈ 1.58 µM); in assay [3] it was 0.625 µg/mL (≈ 1.59 µM); in assay [4] it was 0.62 µg/mL (≈ 1.58 µM).

In the case of `COC(=O)c1ccc2c(c1)[n+]([O-])c(C(=O)OC)c(C)[n+]2[O-]` [Compound T-022], the MIC in assay [1] is 0.625 µg/mL (≈ 2.14 µM); in assay [2] it was 0.62 µg/mL (≈ 2.12 µM); in assay [3], under 0.31 µg/mL; in assay [4] it was 0.62 µg/mL (≈ 2.12 µM).

(Values after article PMC6099706, “Anti-Mycobacterium tuberculosis Activity of Esters of Quinoxaline 1,4-Di-N-Oxide” (Molecules : A Journal of Synthetic Chemistry and Natural …, 2018).)
